Results as given in patent US4393228A, “Epoxysuccinic acid derivatives” (Taisho Pharmaceutical Co., Ltd., priority 1977, dated 1983).
Where a name gives a salt, the structure may show the parent alone.

Target: T1, papain (Carica papaya, UniProt P00784)
T1 construct: purchased Sigma Chem. Co
T1 sequence (P00784 134-345): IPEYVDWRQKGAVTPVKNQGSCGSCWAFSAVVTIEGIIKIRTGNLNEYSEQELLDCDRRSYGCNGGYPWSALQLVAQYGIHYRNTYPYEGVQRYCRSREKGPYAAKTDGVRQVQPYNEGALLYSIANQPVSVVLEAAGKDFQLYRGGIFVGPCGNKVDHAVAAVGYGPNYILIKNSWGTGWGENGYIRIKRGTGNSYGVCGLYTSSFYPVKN
Test: Papain inhibitory activity (milk casein digestion)
Assay type: biochemical
Details: papain 80 μg/ml 0.5 ml, cysteine, pH 6.8, 1% milk casein, 40° C., 10 minutes
In short: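 Papain (80 μg/ml stock) preincubated 15 min at 40 °C with inhibitor, cysteine/EDTA activator and phosphate buffer pH 6.8. Then 1% milk casein digested 10 min at 40 °C, stopped with trichloroacetic acid and filtered; filtrate absorbance at 280 nm gives percent inhibition versus no-inhibitor control.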

Row | Structure (SMILES) | ID50 (amount of inhibitor for 50% inhibition)
1 | O=C(O)C1OC1C(=O)OC1CC(Cl)CC(Cl)C1 (stereo not drawn) [EP-24, 3',5'-trans-dichlorocyclohexyl potassium epoxysuccinate] | 0.09 γ
2 | O=C(OC1CCC(Cl)C1)C1OC1C(=O)OC1CCC(Cl)C1 (stereo not drawn) [EP-29, di-3'-cis-chlorocyclopentyl epoxysuccinate] | 3.12 γ
3 | O=C(O)C1OC1C(=O)OC1CCC(Cl)C1 (stereo not drawn) [EP-30, 3'-cis-chlorocyclopentyl potassium epoxysuccinate] | 0.07 γ
4 | CC1CCC(OC(=O)C2OC2C(=O)OC2CCC(C)C2)C1 (stereo not drawn) [EP-31, di-3'-trans-methylcyclopentyl epoxysuccinate] | 3.25 γ
5 | CC1CCC(OC(=O)C2OC2C(=O)O)C1 (stereo not drawn) [EP-32, 3'-trans-methylcyclopentyl potassium epoxysuccinate] | 0.09 γ
6 | CC(OC(=O)C1OC1C(=O)OC(C)C1CCCC1)C1CCCC1 (centres unmarked) [EP-45, di-1-cyclopentaneethyl epoxysuccinate] | 0.23 γ
7 | CC(OC(=O)C1OC1C(=O)O)C1CCCC1 (centres unmarked) [EP-46, 1-cyclopentaneethyl potassium epoxysuccinate] | 0.08 γ
8 | CC1(C)C2CCC1(C)C(OC(=O)C1OC1C(=O)OC1CC3CCC1(C)C3(C)C)C2 (centres unmarked) [EP-53, dibornyl epoxysuccinate] | 0.45 γ
9 | CC1(C)C2CCC1(C)C(OC(=O)C1OC1C(=O)O)C2 (centres unmarked) [EP-54, bornyl potassium epoxysuccinate] | 0.09 γ
10 | O=C(OC1CC2CCC1C2)C1OC1C(=O)OC1CC2CCC1C2 (centres unmarked) [EP-55, dinorbornyl epoxysuccinate] | 0.28 γ
11 | O=C(O)C1OC1C(=O)OC1CC2CCC1C2 (centres unmarked) [EP-56, norbornyl potassium epoxysuccinate] | 0.06 γ
12 | O=C(OC1CC2C=CC1C2)C1OC1C(=O)OC1CC2C=CC1C2 (centres unmarked) [EP-57, dinorbor-5-en-2-yl epoxysuccinate] | 0.26 γ
13 | O=C(O)C1OC1C(=O)OC1CC2C=CC1C2 (centres unmarked) [EP-58, norbor-5-en-2-yl potassium epoxysuccinate] | 0.07 γ
14 | O=C(OCC1CC=CCC1)C1OC1C(=O)OCC1CC=CCC1 (centres unmarked) [EP-69, di-3-cyclohexenemethyl epoxysuccinate] | 0.23 γ
15 | O=C(O)C1OC1C(=O)OCC1CC=CCC1 (centres unmarked) [EP-70, 3-cyclohexenemethylpotassium epoxysuccinate] | 0.08 γ
16 | O=C(OCC1C=CCC1)C1OC1C(=O)OCC1C=CCC1 (centres unmarked) [EP-71, di-2-cyclopentenemethyl epoxysuccinate] | 0.40 γ
17 | O=C(O)C1OC1C(=O)OCC1C=CCC1 (centres unmarked) [EP-72, 2-cyclopentenemethyl potassium epoxysuccinate] | 0.08 γ
18 | CCOC(=O)C1OC1C(=O)N[C@@H](CC(C)C)C(=O)OCC (stereo partly drawn) [EP-146, N-(3-ethoxycarbonyloxirane-2-carbonyl)-L-leucine ethyl ester] | 0.39 γ
19 | C=CCOC(=O)C1OC1C(=O)N[C@@H](Cc1ccc(O)cc1)C(=O)OCc1ccccc1 (stereo partly drawn) [EP-147, N-(3-allyloxycarbonyloxirane-2-carbonyl)-L-tyrosine benzyl ester] | 3.40 γ
20 | Cc1cccc(COC(=O)C2OC2C(=O)N[C@@H](Cc2ccc(O)cc2)C(=O)OCc2ccccc2)c1 (stereo partly drawn) [EP-148, N-(3-m-methylbenzyloxycarbonyloxirane-2-carbonyl)-L-tyrosine benzyl ester] | 0.70 γ
21 | COC(=O)[C@H](CCSC)NC(=O)C1OC1C(=O)OCc1ccc2c(c1)OCO2 (stereo partly drawn) [EP-149, N-(3-piperonyloxycarbonyloxirane-2-carbonyl)-L-methionene methyl ester] | 0.70 γ
22 | CCOC(=O)C1OC1C(=O)N[C@@H](Cc1ccccc1)C(=O)OCC (stereo partly drawn) [EP-150, N-(3-ethoxycarbonyloxirane-2-carbonyl)-L-phenylalanine ethyl ester] | 3.10 γ

Row | Structure (SMILES) | ID50 (amount of inhibitor for 50% inhibition)
23 | CCOC(=O)C1OC1C(=O)N[C@@H](Cc1c[nH]c2ccccc12)C(=O)OCC (stereo partly drawn) [EP-151, N-(3-ethoxycarbonyloxirane-2-carbonyl)-L-tryptophan ethyl ester] | 7.20 γ
24 | CCOC(=O)C1OC1C(=O)N1CCC[C@H]1C(=O)OCc1ccccc1 (stereo partly drawn) [EP-152, N-(3-ethoxycarbonyloxirane-2-carbonyl)-L-proline benzyl ester] | 48.20 γ
25 | CCOC(=O)C1OC1C(=O)N[C@@H](CCSC)C(=O)OC (stereo partly drawn) [EP-155, N-(3-ethoxycarbonyloxirane-2-carbonyl)-L-methionine methyl ester] | 9.20 γ
26 | CCOC(=O)C1OC1C(=O)N[C@@H](CCC(=O)OCc1ccccc1)C(=O)OCc1ccccc1 (stereo partly drawn) [EP-156, N-(3-ethoxycarbonyloxirane-2-carbonyl)-L-glutamic acid dibenzyl ester] | 13.80 γ
27 | CCOC(=O)C1OC1C(=O)N[C@H](C(=O)OCc1ccccc1)C(C)C (stereo partly drawn) [EP-158, N-(3-ethoxycarbonyloxirane-2-carbonyl)-L-valine benzyl ester] | 3.47 γ
28 | CCOC(=O)[C@H](Cc1ccccc1)NC(=O)C1OC1C(=O)OCc1ccccc1 (stereo partly drawn) [EP-159, N-(3-benzyloxycarbonyloxirane-2-carbonyl)-L-phenylalanine ethyl ester] | 0.27 γ
29 | CCOC(=O)[C@H](Cc1ccccc1)NC(=O)C1OC1C(=O)OCc1ccccc1Cl (stereo partly drawn) [EP-160, N-(3-o-chlorobenzyloxycarbonyloxirane-2-carbonyl)-L-phenylalanine ethyl ester] | 0.30 γ
30 | CC(C)[C@H](NC(=O)C1OC1C(=O)OCc1ccc(Br)cc1)C(=O)OCc1ccccc1 (stereo partly drawn) [EP-162, N-(3-p-bromobenzyloxycarbonyloxirane-2-carbonyl)-L-valine benzyl ester] | 0.80 γ
31 | CCOC(=O)C1OC1C(=O)N[C@@H](CCCCNC(=O)OCc1ccccc1)C(=O)OCc1ccccc1 (stereo partly drawn) [EP-163, N^α -(3-ethoxycarbonyloxirane-2-carbonyl)-N^ε -carbobenzoxy-L-lysine benzyl ester] | 29.07 γ
32 | C=CCOC(=O)C1OC1C(=O)N[C@@H](CCCCNC(=O)OCc1ccccc1)C(=O)OCc1ccccc1 (stereo partly drawn) [EP-164, N^α -(3-allyloxycarbonyloxirane-2-carbonyl)-N^ε -carbobenzoxy-L-lysine benzyl ester] | 20.49 γ
33 | C#CCOC(=O)C1OC1C(=O)N[C@@H](CCCCNC(=O)OCc1ccccc1)C(=O)OCc1ccccc1 (stereo partly drawn) [EP-165, N^α -(3-propargyloxycarbonyloxirane-2-carbonyl)-N^ε -carbobenzoxy-L-lysine benzyl ester] | 22.50 γ
34 | CCOC(=O)[C@H](CC(C)C)NC(=O)C1OC1C(=O)OC (stereo partly drawn) [EP-166, N-(3-methoxycarbonyloxirane-2-carbonyl)-L-leucine ethyl ester] | 0.67 γ
35 | CCOC(=O)C1OC1C(=O)N[C@@H](CC(C)C)C(N)=O (stereo partly drawn) [EP-167, N-(3-ethoxycarbonyloxirane-2-carbonyl)-L-leucine amide] | 0.50 γ
36 | CCOC(=O)C1OC1C(=O)N[C@@H](CCC(N)=O)C(=O)OCc1ccccc1 (stereo partly drawn) [EP-168, N-(3-ethoxycarbonyloxirane-2-carbonyl)-L-glutamine benzyl ester] | 12.50 γ
37 | CCOC(=O)C1OC1C(=O)N[C@@H](CCCCNC(=O)OCc1ccc(OC)cc1)C(=O)OCc1ccccc1 (stereo partly drawn) [EP-169, N^α -(3-ethoxycarbonyloxirane-2-carbonyl)-N^ε -p-methoxybenzyloxycarbonyl-L-lysine benzyl ester] | 26.50 γ
38 | CCOC(=O)C1OC1C(=O)N[C@@H](CCCCNC(=O)OC(C)(C)C)C(=O)OCc1ccccc1 (stereo partly drawn) [EP-170, N^α -(3-ethoxycarbonyloxirane-2-carbonyl)-N^ε -t-butyloxycarbonyl-L-lysine benzyl ester] | 27.50 γ
39 | O=CNCCCC[C@H](NC(=O)C1OC1C(=O)OCc1ccccc1)C(=O)OCc1ccccc1 (some centres unmarked) [EP-171] | 5.80 γ
40 | CCOC(=O)C1OC1C(=O)N[C@@H](CCCNC(C)=O)C(=O)OCc1ccccc1 (stereo partly drawn) [EP-172, N^α -(3-ethoxycarbonyloxirane-2-carbonyl)-N^δ -acetyl-L-ornithine benzyl ester] | 6.20 γ
41 | CCOC(=O)C1OC1C(=O)N[C@@H](CCCNC(=O)c1ccccc1)C(=O)OCc1ccccc1 (stereo partly drawn) [EP-173, N^α -(3-ethoxycarbonyloxirane-2-carbonyl)-N^δ -benzoyl-L-ornithine benzyl ester] | 5.80 γ
42 | O=C(NCCCC[C@H](NC(=O)C1OC1C(=O)O)C(=O)O)OCc1ccccc1 (stereo partly drawn) [EP-176, N-(3-carboxyoxirane-2-carbonyl)-N-carbobenzoxy-L-lysine dipotassium salt] | 1.06 γ
43 | O=C(O)C1OC1C(=O)N[C@@H](Cc1c[nH]c2ccccc12)C(=O)O (stereo partly drawn) [EP-177, N-(3-carboxyoxirane-2-carbonyl)-L-tryptophan] | 1.50 γ
44 | N=C(NCCC[C@H](NC(=O)C1OC1C(=O)OCc1ccccc1)C(=O)OCc1ccccc1)N[N+](=O)[O-] (stereo partly drawn) [EP-178, N-(3-benzyloxycarbonyloxirane-2-carbonyl)-N^G -nitro-L-arginine benzyl ester] | 4.63 γ
